The source of these data is patent publication US20120234256A1, “[…] DEVICE” (priority 2009, published 2012).

For one test, the system named is CCI rats. The test can be described thus: Mechanical conflict device (MCD) test, neuropathic pain from chronic constriction injury (CCI) of the left sciatic nerve. Format: in vivo, rat. The settings on record: pregabalin 10 and 30 mg/kg, i.p. The source says: (§1) The mechanical conflict device can be used in various methods. With reference now to FIGS. 3-7, the MCD 10 of the present technology can be used to measure the response of a laboratory animal 17, such as a rat, to noxious mechanical stimuli. In this test, exit or escape from an aversive environment to a preferred environment is deterred by a noxious mechanical stimulus represented by the pins 60 on a raised pin platform 80, as shown in FIG. 6. In an initial MCD 10 training period, the pins 60 are lowered below the alley floor 50 and the laboratory animal 17 is placed into the holding compartment 20. […] The holding compartment 20 and the alley compartment 30 can be illuminated with normal room lighting. In some embodiments, the holding compartment 20 and/or the alley compartment 30 are supplemented by a light source 220, for example, a high-intensity, white-light LED array positioned above the alley compartment 30, as shown in FIGS. 3-6. At that time, panel walls 110 and 120 can be raised to allow the laboratory animal 17 to learn that it can exit from the mildly aversive stimuli (the light 220) in the holding compartment 20 and alley compartment 30 and move across the floor 50, passing into the more comfortable compensatory compartment 40 where it is generally dim and provides the laboratory animal 17 with a generally more rewarding area. […]

In test [1] the test system is persistent and neuropathic pain. The note with it: animal studies; cited from earlier work.
In the next test the test system is human neuropathic pain. The settings on record: in the clinic; cited from earlier work.
The test system of test [2] is rats with formalin injection into one hindpaw. Description: Mechanical conflict device (MCD) test, inflammatory pain from formalin injection into one hindpaw. Format: in vivo, rat. The note with it: formalin 0.2%, s.c. into one hindpaw, morphine 2.5 mg/kg i.p.
Text: as §1

On to `CC(C)C[C@H](CN)CC(=O)O` [pregabalin], for which the “Latency to exit (light chamber)” value in the test on CCI rats (FIG. 12) was “modulated”. In the test with CCI rats (FIG. 13), the “Time spent on the stimulus array” value was “not modulated”.
`COc1ccccc1CN(C[C@@H](Cc1c[nH]c2ccccc12)NC(=O)CN1CCC(N2CCCCC2)CC1)C(C)=O` [LY 303870]: the “Relief of persistent and neuropathic pain” value in test [1] is “did relieve persistent and neuropathic pain”. Also, in the test on human neuropathic pain, the “Analgesia against human neuropathic pain” value is given as “failed”.
On to `CN1CC[C@]23c4c5ccc(O)c4O[C@H]2[C@@H](O)C=C[C@H]3[C@H]1C5` [morphine], for which the “Increased latency to exit produced by formalin injection” value in test [2] (FIG. 14) was “not reduced”. Besides, in test [2] (FIG. 15), the “Increased time spent on the stimulus array produced by formalin injection” value is recorded as “attenuated”.
